Laboratory results from a melting point compilation (Tetko et al.).

Row | melting point [°C] | SMILES
1 | 177 to 178 | CC1=CCC(=O)Nc2c1cnn2-c1ccc(Cl)cc1
2 | -135 | CCO[Si](Cl)(Cl)Cl
3 | 151 | COc1cccc(CNC(=O)c2[nH]c3ccccc3c2CCO)c1
4 | 75 | CC1=C(c2ccccc2)Cc2ccccc21
5 | 38 | CCOC(=O)C(=O)C=CN(C)C
6 | 218 | Cc1ccc(Nc2ccc(Nc3ccc(C)cc3)c3c2C(=O)c2ccccc2C3=O)cc1
7 | -70 | CCO[Si](CCCN)(OCC)OCC
8 | 73 to 76 | Cn1nccc1N
9 | 89 | Cc1cc(OC(=O)C(F)(F)F)c(C)cc1OC(=O)C(F)(F)F
10 | 120 to 121 | Cc1nc(-c2ccc(Cl)cc2)sc1C(=O)CBr
11 | 160 | N#C/C(=N/Nc1ccccc1Cl)c1nc(-c2ccccc2)cs1
12 | 143 to 147 | Cc1nnc(Sc2ccc(C=O)o2)n1C
13 | 217 to 218 | COc1ccc(C=CC(=O)O)c(Cl)c1OC
14 | 152 to 154 | OCC1OC(n2cnc3c(NCc4ccco4)ncnc32)C(O)C1O (stereo not drawn)
15 | 175 to 177 | O=[N+]([O-])c1ccc(-c2nnc(S)s2)o1
16 | 161 to 163 | O=C(O)c1cccc(N2CCOCC2)c1
17 | 20 | c1ccc2c(c1)CCCN2
18 | 132 | Clc1ncccc1-c1ccc(Br)cn1
19 | 120 to 123 | CC12CCC(O)CC1CCC1C2CCC2(C)C1CCC2(O)C#Cc1ccccc1 (stereo not drawn)
20 | 82 to 83 | COc1ccc2nsnc2c1
21 | 83 | Nc1ccc(Cl)nc1
22 | 45 to 47 | Cc1cc(Br)cc(Cl)c1O
23 | 134 to 137 | Cc1nc2ccc(I)cc2s1

Row | melting point [°C] | SMILES
24 | 35 | CC(=O)c1cc(F)c(Cl)cc1Cl
25 | 15 | CCCCCCCCCCCCCCCCC(C)C
26 | 63 to 64.2 | CCCCCCCC(=O)Oc1ccc(/N=N/c2ccc(CCCC)cc2)cc1
27 | 234 | c1ccc2c(c1)cc1c3ccccc3c3cccc4ccc2c1c43
28 | 235 | Cn1c(=O)c(C2=NNC(=O)C2=CNc2ccccn2)c(O)c2ccccc21
29 | 216 | CC(=O)OC1C2=C(C(=O)C(O)=C(C(C)C)C2=O)C2(C)CCCC(C)(C)C2C1O (stereo not drawn)
30 | -103 | CCC#CCC
31 | 77 | COc1ccc(Cl)cc1C=O
32 | 151 to 153 | NNC(=O)CNS(=O)(=O)c1cccc2nsnc12
33 | 272 to 274 | NC(CCCC(F)(F)F)C(=O)O (stereo not drawn)
34 | 79.6 to 80 | O=[N+]([O-])c1ccc(CN2CCOCC2)cc1
35 | 298 | CC(=O)OC1(C(C)=O)CCC2C3CC(C)C4=CC(=O)C=CC4(C)C3(F)C(O)CC21C (stereo not drawn)
36 | 222 | FC(F)(F)c1nn2c(=S)nc(-c3ccccc3)nc2s1
37 | 155 | O=C1c2ccccc2C(=O)C2CC3=C(CC=CC3)CC12 (stereo not drawn)
38 | 178 to 181 | O=C(O)c1ccc(C(=O)C(F)(F)F)cc1
39 | 199 | Cc1ccc(-c2c(C#N)c(=O)n3c(sc4ccccc43)c2C(N)=O)cc1
40 | 111 | c1ccc(/N=N/c2ccccc2/N=N/c2ccccc2)cc1
41 | 57 to 59 | Cc1cc(Oc2ccc(C(F)(F)F)cc2[N+](=O)[O-])ccc1Cl
42 | 185 | COC1=C/C(=N\O)C2(C)CCC1C2(C)C (stereo not drawn)
43 | 43 | Cc1ccncc1C#N
44 | 210 | Cc1cc(C(F)(F)F)n2nc(N)c(/N=N/c3ccc(Cl)cc3Cl)c2n1
45 | 234 | COc1cc2c(cc1OC)CN1C(=O)C(C)NC(=O)C1C2 (stereo not drawn)
46 | 45 | C=C1C(=O)C2(C)CCC1C2(C)C (stereo not drawn)

Row | melting point [°C] | SMILES
47 | 100 | C[Si]1(c2ccccc2)O[Si](C)(c2ccccc2)O[Si](C)(c2ccccc2)O1 (stereo not drawn)
48 | 233 | O=C1C(c2ccccc2)=[N+]([O-])c2cc([N+](=O)[O-])c(/C=C/c3ccccc3)cc21
49 | 163 to 166 | NC(=NO)c1c(Cl)cccc1Cl
50 | 134 | NC(=O)CCCNC(=C1C=C(F)C=CC1=O)c1ccc(Cl)cc1
51 | 156 to 157 | CSc1nc2nc(C)cc(C)n2n1
52 | 54 | CCCCCCCCCCCCCCCCCCCCCC(=O)OC
53 | 162 to 163 | NC(=O)c1cccnc1Oc1ccccc1
54 | 166 | O=C1CCC(=O)N1CN1C(=O)C(=Cc2ccco2)SC1=S
55 | 102 to 103 | CC(C)(C)OC(=O)NCC1CCN(Cc2ccccc2)CC1
56 | 72 | Cc1c(C)c(C)c(Br)c(Br)c1C
57 | 156 to 158 | O=Nc1ccc2ccccc2c1O
58 | 133 | O=C(c1ccco1)c1noc(-c2ccc(Br)cc2)c1S(=O)(=O)c1ccccc1
59 | 122 | COC(=O)c1cc(C(=O)OC)cc([N+](=O)[O-])c1
60 | 99 | COc1ccc(C=O)cc1[N+](=O)[O-]
61 | 179 to 181 | CC(Nc1ccc(Br)cn1)=C(C#N)C(=O)c1ccccc1
62 | 60.5 | CC1CCC2C(C)C(=O)OCC12 (stereo not drawn)
63 | 85 to 91 | CCn1c2ccccc2c2cc(C=O)ccc21
64 | 246 | CC(=O)OC1CC2C(C)C(=O)C3(C(O)CC4C(C)(C)CCC(OC(C)=O)C4(C)C13)C2O (stereo not drawn)
65 | 83 to 84 | BrCc1ccc(-c2cccs2)cc1
66 | 255 to 257 | COc1ccc(C=NN=C2NC(=O)C(=Cc3ccccc3)S2)cc1
67 | 171 | CCN1CCN(C(=O)N[C@@H](C(=O)O)c2ccccc2)C(=O)C1=O
68 | -61.5 | CC/C=C/CCO
69 | 144 to 149 | COc1cc(O)c(C(C)=O)c(O)c1

Row | melting point [°C] | SMILES
70 | 31 | Clc1noc2ccccc12
71 | 71 | Cc1cc(-c2ccc(N=C=O)c(C)c2)ccc1N=C=O
72 | 137 to 139 | c1ccc(CSc2nnc(SCc3ccccc3)nn2)cc1
73 | 106 | CC(C)(C)OC(=O)n1cc(CBr)c2ccccc21
74 | 109 to 111 | O=Cc1csc2ccc(Cl)cc12
75 | 85 | Cc1nnc(-c2ccccn2)nc1C
76 | 211 to 213 | O=C1C=CC(=O)N1c1ccc(-c2nc3ccccc3o2)cc1
77 | 86 to 88 | Brc1cccc(N2CCCC2)n1
78 | 138 to 142 | Cc1cccc(C(=O)NCC(=O)O)c1
79 | 108 | COC(=O)C1(S(=O)(=O)c2ccccc2)CCC1
80 | 142 | CCCN(CCC)C(=O)C(CCC(=O)O)NC(=O)c1ccccc1 (stereo not drawn)
81 | 163 | CN1C(=O)NC(=O)C1(C)C
82 | 168 | O=C(O)c1cc(-c2cccs2)on1
83 | 196 | Cc1cc(O)c2c(c1)C(=O)c1cccc(O)c1C2=O
84 | 64.5 | OCC(c1ccccc1)c1ccccc1
85 | 320 | O=P1(O)Oc2ccc3ccccc3c2-c2c(ccc3ccccc23)O1
86 | 147 to 151 | NN=C(C(=O)c1ccccc1)c1ccccc1
87 | 156 | CC(=O)c1ccc(N2C(=O)C=CC2=O)cc1
88 | 70 | Oc1c(Cl)cc(Cl)c(Cl)c1Cl
89 | 105 | C(#Cc1ccc(CCc2ccccc2)cc1)c1ccccc1
90 | 146 to 148 | O=Cc1c[nH]nc1-c1ccccc1
91 | 123 to 125 | C[C@@H](NC(=O)c1ccccc1)c1ccccc1
92 | 54 | O=S(=O)(CCl)c1ccccc1

Row | melting point [°C] | SMILES
93 | 101 | CCC(=O)c1cccc([N+](=O)[O-])c1
94 | 208 to 210 | Cc1cc(C)n2nc(N)c(Cc3ccc(F)cc3)c2n1
95 | 73 to 75 | Nc1ccc2oc3c(c2c1)CCCC3
96 | 57.5 | N#CCc1cccc(C(F)(F)F)c1Cl
97 | 131 | N=c1sc(C(=O)c2cccs2)nn1-c1ccncc1
98 | 206 | NNC(=O)c1cc(Cl)cc(Cl)c1
99 | 218 | Nc1cc2nc3c(cc2cc1C=O)CCCC3
100 | 170 to 175 | CC(C)(C)[C@H]1CC[C@H](C(=O)O)CC1
101 | 38 | Nc1c(Br)cc(C(F)(F)F)cc1Br
102 | 197 | Cc1cc(O)nc(O)c1
103 | 106 to 110 | Cc1nn(-c2ccccc2)c(C)c1CO
104 | 104 | CC1CCC(C(C)C)C(OC(=O)C(C=Cc2ccccc2)C(=O)c2ccccc2)C1 (stereo not drawn)
105 | 61 | CC(=O)NCc1ccccc1
106 | 332 | NC(=O)c1ccc(C(N)=O)cc1
107 | 170 | CC1OC(Oc2c(-c3ccc(O)c(O)c3)oc3cc(O)cc(O)c3c2=O)C(O)C(O)C1O (stereo not drawn)
108 | -27 | OCCc1ccccc1
109 | 46 to 49 | CCCCCOc1ccc(O)cc1
110 | 60 | CC(CN1c2ccccc2Sc2ccccc21)N(C)C (stereo not drawn)
111 | 188 | C/C=C/c1nc(O)n(-c2ccccc2)n1
112 | 177 | CC(=O)OCC1OC(Oc2ccc([N+](=O)[O-])cc2)C(OC(C)=O)C(OC(C)=O)C1OC(C)=O (stereo not drawn)

Row | SMILES | melting point [°C]
113 | O=C(CBr)c1ccc(-c2ccccc2)cc1 | 125
114 | O=[N+]([O-])c1ccc2c(c1)oc1ccccc12 | 182
115 | CC1CC2=CC(=O)CCC2(C)C2CCC3(C)C(CCC3(C)O)C12 (stereo not drawn) | 164
116 | C#CCN1C(=O)COc2cc(F)c(N3C(=O)C4=C(CCCC4)C3=O)cc21 | 203
117 | ClCc1ccc(Cl)c(Cl)c1 | 37.5
118 | CCC(C)Br (stereo not drawn) | -112
119 | CCC(=O)c1ccc(N)cc1 | 140
120 | Fc1cc(CBr)ccc1Cl | 32
121 | CC(=O)OCC(=O)C1CCC2C3CCC4CC(O)CCC4(C)C3C(=O)CC12C (stereo not drawn) | 176
122 | N#CC(CCc1ccc(Cl)cc1)(Cn1cncn1)c1ccccc1 (stereo not drawn) | 126
123 | Clc1ccc(C(Cl)Cl)c(Cl)c1Cl | 84
124 | CCOc1cc(C(C)(C)C)ccc1C1COC(c2c(F)cccc2F)=N1 (stereo not drawn) | 102
125 | O=c1n(Cl)c(=O)n(Cl)c(=O)n1Cl | 249
126 | c1ccc2cc3cc4cc5ccccc5cc4cc3cc2c1 | 300
127 | CNC(=O)Oc1ccc(SC)c(C)c1 | 118
128 | O=C(O)CF | 35.2
